Experimental data: ChEMBL document CHEMBL1150976, “The selectivity of protein kinase inhibitors: a further update” (Biochem J, 2007)

What was measured:
[1] = target: T1, Eukaryotic elongation factor 2 kinase (Homo sapiens) (UniProt O00418); assay: Percentage EF2K activity remaining in the presence of 25uM inhibitor
T1 sequence (whole entry): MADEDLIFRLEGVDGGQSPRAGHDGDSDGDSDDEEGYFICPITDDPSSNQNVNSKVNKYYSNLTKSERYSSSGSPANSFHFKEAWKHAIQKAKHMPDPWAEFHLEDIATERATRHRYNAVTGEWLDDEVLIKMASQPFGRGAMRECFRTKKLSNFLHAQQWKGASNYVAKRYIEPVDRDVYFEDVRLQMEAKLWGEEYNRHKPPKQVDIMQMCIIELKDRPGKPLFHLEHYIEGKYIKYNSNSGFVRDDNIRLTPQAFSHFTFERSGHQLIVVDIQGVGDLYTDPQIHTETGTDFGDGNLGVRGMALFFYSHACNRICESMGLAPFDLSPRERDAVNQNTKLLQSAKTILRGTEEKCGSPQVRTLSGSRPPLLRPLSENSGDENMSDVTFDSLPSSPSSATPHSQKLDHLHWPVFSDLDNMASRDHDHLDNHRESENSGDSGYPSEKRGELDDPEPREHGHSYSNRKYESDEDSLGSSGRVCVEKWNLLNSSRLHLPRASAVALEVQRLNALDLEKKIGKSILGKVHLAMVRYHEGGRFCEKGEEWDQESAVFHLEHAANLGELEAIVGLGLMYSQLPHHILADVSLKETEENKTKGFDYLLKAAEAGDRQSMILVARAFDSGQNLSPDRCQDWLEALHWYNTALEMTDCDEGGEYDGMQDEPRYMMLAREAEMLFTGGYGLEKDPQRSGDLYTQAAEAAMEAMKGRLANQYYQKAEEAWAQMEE

[2] = target: T2, Serine/threonine-protein kinase Chk1 (Homo sapiens) (UniProt O14757); assay: Percentage CHK1 activity remaining in the presence of 25uM inhibitor
T2 sequence (whole entry): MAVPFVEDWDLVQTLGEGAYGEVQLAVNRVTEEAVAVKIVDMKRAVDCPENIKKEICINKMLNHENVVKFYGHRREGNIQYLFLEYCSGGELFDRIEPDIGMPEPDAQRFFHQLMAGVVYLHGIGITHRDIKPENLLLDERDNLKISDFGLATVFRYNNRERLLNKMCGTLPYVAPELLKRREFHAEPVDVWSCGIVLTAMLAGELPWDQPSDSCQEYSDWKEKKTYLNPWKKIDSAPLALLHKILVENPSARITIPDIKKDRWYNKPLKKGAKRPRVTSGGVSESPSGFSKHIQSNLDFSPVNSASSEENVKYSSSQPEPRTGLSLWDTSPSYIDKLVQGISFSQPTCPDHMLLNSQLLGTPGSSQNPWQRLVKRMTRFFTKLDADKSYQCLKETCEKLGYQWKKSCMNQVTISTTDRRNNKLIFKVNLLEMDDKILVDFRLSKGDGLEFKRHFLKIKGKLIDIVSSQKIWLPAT

[3] = target: T3, Mitogen-activated protein kinase 15 (Homo sapiens) (UniProt Q8TD08); assay: Percentage ERK8 activity remaining in the presence of 25uM inhibitor
T3 sequence (whole entry): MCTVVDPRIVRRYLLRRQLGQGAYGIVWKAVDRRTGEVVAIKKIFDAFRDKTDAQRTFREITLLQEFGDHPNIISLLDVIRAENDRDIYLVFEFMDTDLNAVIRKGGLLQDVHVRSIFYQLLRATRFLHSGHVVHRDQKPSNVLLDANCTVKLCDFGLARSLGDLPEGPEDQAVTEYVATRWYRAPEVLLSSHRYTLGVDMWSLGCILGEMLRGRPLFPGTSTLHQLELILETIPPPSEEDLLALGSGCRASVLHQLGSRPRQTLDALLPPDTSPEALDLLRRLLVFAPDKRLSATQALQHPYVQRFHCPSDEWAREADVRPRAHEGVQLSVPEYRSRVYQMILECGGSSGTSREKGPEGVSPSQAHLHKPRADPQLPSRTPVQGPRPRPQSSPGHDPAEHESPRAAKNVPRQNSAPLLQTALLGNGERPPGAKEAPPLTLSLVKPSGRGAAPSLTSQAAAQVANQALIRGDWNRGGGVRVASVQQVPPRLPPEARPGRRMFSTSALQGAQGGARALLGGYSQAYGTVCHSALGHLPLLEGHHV

[4] = target: Mitogen-activated protein kinase 1 (Homo sapiens) (UniProt P28482); assay: Percentage ERK2 activity remaining in the presence of 25uM inhibitor
[5] = target: Maternal embryonic leucine zipper kinase (Homo sapiens) (UniProt Q14680); assay: Percentage MELK activity remaining in the presence of 25uM inhibitor
[6] = target: T4, Serine/threonine-protein kinase Nek2 (Homo sapiens) (UniProt P51955); assay: Percentage NEK2a activity remaining in the presence of 25uM inhibitor
T4 sequence (whole entry): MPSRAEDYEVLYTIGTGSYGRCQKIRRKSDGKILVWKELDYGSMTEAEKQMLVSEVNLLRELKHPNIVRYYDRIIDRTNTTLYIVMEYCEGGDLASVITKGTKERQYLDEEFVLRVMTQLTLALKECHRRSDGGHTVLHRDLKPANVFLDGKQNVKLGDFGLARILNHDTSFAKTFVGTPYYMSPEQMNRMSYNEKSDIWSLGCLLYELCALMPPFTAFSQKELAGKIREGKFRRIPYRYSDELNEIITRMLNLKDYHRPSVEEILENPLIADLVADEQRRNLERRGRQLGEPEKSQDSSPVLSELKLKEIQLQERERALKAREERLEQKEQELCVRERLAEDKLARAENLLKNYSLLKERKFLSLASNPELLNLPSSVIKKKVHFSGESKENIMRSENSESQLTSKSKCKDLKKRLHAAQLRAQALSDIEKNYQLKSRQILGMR

[7] = target: Calcium/calmodulin-dependent protein kinase kinase 1 (Homo sapiens) (UniProt Q8N5S9); assay: Percentage CaMKKalpha activity remaining in the presence of 25uM inhibitor
[8] = target: RAC-alpha serine/threonine-protein kinase (Homo sapiens) (UniProt P31749); assay: Percentage PKBalpha activity remaining in the presence of 25uM inhibitor
[9] = target: T5, Serine/threonine-protein kinase Sgk1 (Homo sapiens) (UniProt O00141); assay: Percentage SGK1 activity remaining in the presence of 25uM inhibitor
T5 sequence (whole entry): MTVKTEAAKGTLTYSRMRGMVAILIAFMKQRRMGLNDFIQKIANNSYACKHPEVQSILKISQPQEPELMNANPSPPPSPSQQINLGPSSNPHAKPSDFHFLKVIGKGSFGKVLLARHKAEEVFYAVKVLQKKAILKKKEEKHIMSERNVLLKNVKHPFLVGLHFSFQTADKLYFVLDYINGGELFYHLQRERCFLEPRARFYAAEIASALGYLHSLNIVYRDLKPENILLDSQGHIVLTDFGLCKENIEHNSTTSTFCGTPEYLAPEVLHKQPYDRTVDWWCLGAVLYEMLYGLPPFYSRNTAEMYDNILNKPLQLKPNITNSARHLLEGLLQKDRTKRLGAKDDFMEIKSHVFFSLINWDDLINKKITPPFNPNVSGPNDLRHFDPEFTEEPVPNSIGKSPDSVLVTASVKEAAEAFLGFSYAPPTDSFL

Sequence of Mitogen-activated protein kinase 1 (Homo sapiens) (P28482 whole entry): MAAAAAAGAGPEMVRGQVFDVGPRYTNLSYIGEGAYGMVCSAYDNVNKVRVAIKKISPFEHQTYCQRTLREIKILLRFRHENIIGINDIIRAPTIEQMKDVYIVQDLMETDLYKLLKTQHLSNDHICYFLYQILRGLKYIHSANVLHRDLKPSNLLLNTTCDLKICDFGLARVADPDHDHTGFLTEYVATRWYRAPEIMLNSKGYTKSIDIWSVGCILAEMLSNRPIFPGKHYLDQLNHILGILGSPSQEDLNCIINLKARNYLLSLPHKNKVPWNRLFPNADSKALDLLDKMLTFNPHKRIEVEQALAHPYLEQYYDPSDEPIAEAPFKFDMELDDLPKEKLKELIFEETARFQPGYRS
Sequence of RAC-alpha serine/threonine-protein kinase (Homo sapiens) (P31749 whole entry): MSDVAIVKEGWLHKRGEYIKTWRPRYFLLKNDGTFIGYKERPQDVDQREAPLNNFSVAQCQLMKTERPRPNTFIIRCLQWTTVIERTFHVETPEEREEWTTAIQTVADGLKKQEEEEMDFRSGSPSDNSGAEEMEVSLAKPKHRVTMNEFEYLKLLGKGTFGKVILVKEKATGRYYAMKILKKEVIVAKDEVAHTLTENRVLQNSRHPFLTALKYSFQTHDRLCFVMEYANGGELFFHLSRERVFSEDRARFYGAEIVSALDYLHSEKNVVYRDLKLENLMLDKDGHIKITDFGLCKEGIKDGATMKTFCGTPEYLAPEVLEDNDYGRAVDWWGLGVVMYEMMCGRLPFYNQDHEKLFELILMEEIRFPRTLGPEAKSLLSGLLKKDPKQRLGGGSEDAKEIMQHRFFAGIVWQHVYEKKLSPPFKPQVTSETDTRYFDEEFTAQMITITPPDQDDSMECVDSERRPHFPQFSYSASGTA
Sequence of Maternal embryonic leucine zipper kinase (Homo sapiens) (Q14680 whole entry, looked up): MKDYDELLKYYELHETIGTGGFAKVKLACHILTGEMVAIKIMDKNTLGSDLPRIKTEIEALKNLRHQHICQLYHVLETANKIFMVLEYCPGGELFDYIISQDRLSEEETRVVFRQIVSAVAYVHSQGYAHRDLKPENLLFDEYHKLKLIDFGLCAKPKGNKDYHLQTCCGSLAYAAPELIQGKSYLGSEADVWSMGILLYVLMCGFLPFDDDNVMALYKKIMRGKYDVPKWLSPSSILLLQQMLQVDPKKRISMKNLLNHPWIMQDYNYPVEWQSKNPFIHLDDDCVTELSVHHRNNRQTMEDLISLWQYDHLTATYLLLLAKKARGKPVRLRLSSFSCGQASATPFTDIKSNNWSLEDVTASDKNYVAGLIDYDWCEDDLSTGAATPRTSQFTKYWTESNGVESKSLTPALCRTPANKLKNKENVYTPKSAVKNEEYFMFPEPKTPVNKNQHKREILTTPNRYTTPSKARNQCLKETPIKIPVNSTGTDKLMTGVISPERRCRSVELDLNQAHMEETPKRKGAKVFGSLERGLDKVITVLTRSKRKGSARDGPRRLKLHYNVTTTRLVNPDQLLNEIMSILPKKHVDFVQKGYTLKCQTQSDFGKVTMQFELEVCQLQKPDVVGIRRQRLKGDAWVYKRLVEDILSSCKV
Sequence of Calcium/calmodulin-dependent protein kinase kinase 1 (Homo sapiens) (Q8N5S9 whole entry, looked up): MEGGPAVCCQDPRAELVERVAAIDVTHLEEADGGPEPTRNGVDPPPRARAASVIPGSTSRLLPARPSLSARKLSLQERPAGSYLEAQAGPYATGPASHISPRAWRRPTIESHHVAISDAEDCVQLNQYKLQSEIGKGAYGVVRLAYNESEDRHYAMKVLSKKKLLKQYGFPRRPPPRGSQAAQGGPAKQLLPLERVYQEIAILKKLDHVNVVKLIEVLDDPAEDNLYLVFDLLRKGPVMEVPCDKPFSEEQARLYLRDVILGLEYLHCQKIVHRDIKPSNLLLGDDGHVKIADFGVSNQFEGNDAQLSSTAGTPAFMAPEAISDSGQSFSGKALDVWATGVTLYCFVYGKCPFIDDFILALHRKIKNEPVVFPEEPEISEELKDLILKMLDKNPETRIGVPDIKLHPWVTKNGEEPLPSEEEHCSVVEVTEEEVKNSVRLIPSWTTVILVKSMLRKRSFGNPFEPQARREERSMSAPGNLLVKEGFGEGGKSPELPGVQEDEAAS

Activity ([9]; filed as antagonist) [%] | SMILES | Activity [1] [%] | Activity [2] [%] | Activity ([3]; filed as antagonist) [%] | Activity [4] [%] | Activity [5] [%] | Activity [6] [%] | Activity [7] [%] | Activity [8] [%] | Activity [3] [%] | Activity [9] [%]
25 | NCCNS(=O)(=O)c1ccc(Cl)c2ccncc12 | 94 | 86 | 29 | 100 | 63 | 85 | 86 | 54 | – | –
– | COc1cc(OC)c(/C=C2/C(=O)Nc3ccccc32)c(OC)c1 | 100 | 99 | – | 93 | 75 | 75 | 67 | 94 | 68 | 79
